Results: patent publication EP4744648A1, “LIPOPEPTIDE-CONTAINING FAT-DISSOLVING PRODUCT, AND PREPARATION METHOD THEREFOR AND USE THEREOF” (Bloomage Biotechnology Corporation Limited, priority 2023, dated 2024)

Key:
[1] = system: transgenic obese (ob/ob) mice; assay: Degradation of gluteal adipose tissue after injection into adipose pads of the left buttock (H-E sections, site observation); type: in vivo; conditions: Example 4, 1 %
Procedure: 6-week-old transgenic obese (ob/ob) mice were used as the animal model. Different drugs were injected into the adipose pads of the left buttock. The mice were totally divided into three groups with 7-10 mice per group, as specified below. • 1) Negative control group: injected with 200 µL of sterile normal saline; • 2) 1% sodium deoxycholate group: injected with 200 µL of sterile normal saline solution containing 1% sodium deoxycholate; • 3) 0.1% surfactin HXRZ group: injected with 200 µL of sterile normal saline solution containing 0.1% surfactin HXRZ.
The day of the first administration was defined as Day 1 of the experiment. Additional administrations were performed on Day 3 and Day 5, respectively. The general condition and administration sites of the mice were observed regularly throughout the experiment. On Day 21 of the experiment, the mice were sacrificed and dissected. The adipose tissue of the left buttock was isolated, fixed immediately in adipose tissue fixative, and then embedded in paraffin. The adipose tissue was stained by hematoxylin and eosin staining for pathological examination, followed by observation and analysis under an optical microscope.
Specifically, 6-week-old transgenic obese (ob/ob) mice were used as the animal model, with one mouse per group. 200 µL each of 0.5% and 1% surfactin HXRZ normal saline solutions (test samples) were injected into the adipose pads of the left buttock, respectively. The day of the first administration was defined as Day 1 of the experiment. Additional administrations were performed on Day 3 and Day 5, respectively. The general condition and administration sites of the mice were observed regularly throughout the experiment. On Day 21 of the experiment, the mice were sacrificed and dissected. The adipose tissue of the left buttock of the mice was isolated, fixed immediately in adipose tissue fixative, and then embedded in paraffin. The adipose tissue was stained by hematoxylin and eosin staining for pathological examination, followed by observation and analysis under an optical microscope.

[2] = Surface tension at serial dilutions (CMC value determination), automatic interfacial tensiometer; type: physicochemical
Procedure: A 0.1% surfactin HXRZ solution and a sodium deoxycholate solution were separately prepared using purified water, followed by serial dilution to obtain different gradient concentrations. The surface tensions at different concentrations were determined respectively via a JZ-200A automatic interfacial tensiometer. Table 1 CMC value determination results

[3] = system: Female Kunming mice; assay: Animal experiment comparing surfactin-C14 and surfactin-C15: subcutaneous injection in right inguinal region, four administrations; type: in vivo
Text: The higher drug concentration indicated the more obvious effect.

[4] = system: Kunming mice; assay: Preliminary study on degradation of inguinal adipose tissue, subcutaneous injection once every 7 days; type: in vivo; conditions: for ulceration at the administration sites: 200 µL s.c. left inguinal, after two administrations, n = 3
Procedure: Administration was performed once every 7 days. […] 7-9.

[5] = system: Mouse adipocyte cell line 3T3-F442A; assay: In vitro cytotoxicity test: relative growth rate of cells by CCK-8; type: cell-based; conditions: 0.5 mg/mL
[6] = system: Mouse adipocyte cell line 3T3-F442A; assay: as above; type: cell-based
Procedure: In accordance with GB/T 16886.5 Biological evaluation of medical devices-Part 5: In vitro cytotoxicity tests (GB/T 16886.5-2017/ISO 10993-5:2009, IDT), and the test was performed with reference to the methods specified therein. The detailed experimental procedures are as follows:
Mouse adipocyte cell line 3T3-F442A in the logarithmic growth phase was seeded into a 96-well plate at a density of 1×10^5 cells/mL, with 100 µL per well. The culture medium consisted of a basal culture medium supplemented with 10% fetal bovine serum. The seeded cells were incubated conventionally in a carbon dioxide incubator at 37°C and 5% CO2 for 24 h.
The solution was freshly prepared before use.
After routine incubation for 24 h, the old culture medium was discarded, and then 100 µL of sample solution was added to replace it in the experimental group. An equal volume of serum-free culture medium was added to the normal control group. Each concentration was set up with at least three replicate wells.
After another incubation for 24 h, the relative growth rate of cells was detected by CCK-8. The culture medium was discarded, 100 µL of CCK-8 diluted 10-fold with the serum-free medium was added to each well. The plate was incubated in a cell incubator for another 2 h. The absorbance was determined using a microplate reader at a wavelength of 450 nm. The relative growth rate (RGR) is a ratio of the absorbance of the experimental group to the absorbance of the normal control group.
The experimental procedures in Example 3 were the same as those in Example 2 except that treatment durations were 0.5 h, 4 h and 24 h. The determination results of the relative growth rates of 3T3-F442A cells treated with surfactin HXRZ and sodium deoxycholate for different durations are shown in Table 3. Table 3 Relative growth rate (%)
3T3-F442A mouse adipocytes in the logarithmic growth phase were seeded into a 96-well plate at a density of 1 × 10^5 cells/mL, with 100 µL per well. After incubation for 24 h, the culture medium was replaced with 100 µL of culture medium containing different concentrations of samples. An equal volume of serum-free culture medium was added to the blank control group, and the incubation was continued for another 24 h. The relative growth rate of cells was determined by CCK-8. The blank control was set as 100%, the relative growth rate and half inhibitory concentration of each group were calculated. The method was the same as that in Example 2.

[7] = Observation of solubility in water; type: physicochemical; conditions: added to water; room temperature
[8] = system: Kunming mice; assay: Efficacy and side effects on degradation of inguinal adipose tissue, subcutaneous injection once every 14 days; type: in vivo; conditions: 1 %; for Adipocyte density (n/mm^2): day 42, M±SEM
Procedure: The adipocyte density was then calculated.
Table 6 Local inflammation in mice of each group

[9] = 10 mg/mL, four administrations, H-E sections

## Sodium deoxycholate
[1]; 200 µL in normal saline, left buttock, Days 1, 3, 5, Day 21
  degradation of adipose tissue at the administration sites (H-E sections, FIG. 5): induced the degradation of adipose tissue at the administration sites
[1]; 200 µL, 7-10 mice per group
  mice with obvious induration palpable at the administration sites: three
  mice with ulceration at the administration site: one
[2]; solution concentration 0.00078125 % in purified water
  Surface tension value: 68.51 mN/m
[2]; solution concentration 0.0015625 % in purified water
  Surface tension value: 66.57 mN/m
[2]; solution concentration 0.003125 % in purified water
  Surface tension value: 65.06 mN/m
[2]; solution concentration 0.00625 % in purified water
  Surface tension value: 63.17 mN/m
[2]; solution concentration 0.0125 % in purified water
  Surface tension value: 60.50 mN/m
[2]; solution concentration 0.025 % in purified water
  Surface tension value: 57.94 mN/m
[2]; solution concentration 0.05 % in purified water
  Surface tension value: 55.40 mN/m
[2]; solution concentration 0.1 % in purified water
  Surface tension value: 53.47 mN/m
[2]; solution concentration 0.1 % in purified water, listed as sodium deoxycholate
  Surface tension value: 53 mN/m
[3]; 10 mg/mL, 200 µL s.c.
  Incidence of local adverse reactions, Fourth administration: 83.33%
  Incidence of local adverse reactions, Second administration: 75.00%
  Incidence of local adverse reactions, Third administration: 66.67%
[3]; 10 mg/mL, 200 µL s.c., percentage of mice with abnormalities at the administration site
  Incidence of local adverse reactions, First administration: 62.50%
[3]; 10 mg/mL, four administrations
  Mean wet adipose tissue weight/body weight percentage (x±SEM, %): 0.57±0.05 %
[3]; 10 mg/mL, four administrations once every 14 days, right inguinal
  Mean wet adipose tissue weight (x±SEM, unit: g): 0.224 ± 0.022 g
[3]; [9]
  Mean adipocyte area (x±SEM, mm^2): 0.003751±0.000614 mm^2
  Mean adipocyte density (x±SEM, n/mm^2): 322.3211±55.3047 n/mm^2
[3]; over all four administrations, except first administration in the HXRZ-B high-dose group
  incidence of adverse reactions: exceeded 60%
[4]; 1 %
  ulceration at the administration sites: visible ulceration was observed at the administration sites
[4]; 1 %, after a 7-day administration interval
  healing of ulceration: healed completely
[4]; 2 %
  ulceration at the administration sites: ulceration occurred at the administration sites in all mice
[4]; 2 %, within the subsequent 7 days
  healing of ulcers: failed to heal
[5]; 4 h
  cell morphology of adipocytes (inverted microscope, FIG. 4): nearly all cells died
[5]; 24 h
  cell morphology of adipocytes (inverted microscope, FIG. 4): nearly all cells died
[6]; 0.5 mg/mL
  treatment time at which adipocytes were completely lysed: 0.5 h
[6]; 3T3-F442A adipocytes, 24 h, calculated from Table 2 curves
  half maximal inhibitory concentrations IC50: 0.2605 mg/mL
[6]; Example 2, 0.125 mg/mL, 24 h, 3T3-F442A
  Relative growth rate (%): 98.64±1.74%
[6]; Example 2, 0.25 mg/mL, 24 h, 3T3-F442A
  Relative growth rate (%): 55.58±3.66%
[6]; Example 2, 0.3 mg/mL, 24 h, 3T3-F442A
  Relative growth rate (%): 23.83±3.45%
[6]; Example 2, 0.4 mg/mL, 24 h, 3T3-F442A
  Relative growth rate (%): 10.92±0.48%
[6]; Example 2, 0.5 mg/mL, 24 h, 3T3-F442A
  Relative growth rate (%): 10.7±0.11%
[6]; Example 3, 0.3 mg/mL, 0.5 h
  Relative growth rate (%): 71.17±4.00%
[6]; Example 3, 0.3 mg/mL, 4 h
  Relative growth rate (%): 61.46±9.30%
[6]; Example 3, 0.3 mg/mL, 24 h
  Relative growth rate (%): 10.70±3.45%
[6]; Example 3, 0.4 mg/mL, 0.5 h
  Relative growth rate (%): 28.78±6.59%
[6]; Example 3, 0.4 mg/mL, 4 h
  Relative growth rate (%): 23.81±1.24%
[6]; Example 3, 0.4 mg/mL, 24 h
  Relative growth rate (%): 10.92±0.48%
[6]; Example 3, 0.5 mg/mL, 0.5 h
  Relative growth rate (%): 12.78±0.67%
[6]; Example 3, 0.5 mg/mL, 4 h
  Relative growth rate (%): 17.24±0.02%
[6]; Example 3, 0.5 mg/mL, 24 h
  Relative growth rate (%): 10.69±0.11%
[7]
  solubility in water: poorly soluble
[8]; 200 µL s.c. left inguinal, once every 14 days, day 42, n = 9
  Adipose tissue weight: 0.1889 ± 0.0270 g
[8]; 200 µL s.c.
  Adipocyte density (n/mm^2): 727.84±56.64 n/mm^2
[8]; 200 µL s.c., listed as sodium deoxycholate
  Adipocyte density (n/mm^2): 727.84±56.64 n/mm^2
[8]; 200 µL s.c., day 42, treated-side inguinal adipose weight/body weight × 100%
  Fat index (%): 0.49±0.07 %
[8]; Day 1, number of mice (n = 9)
  Subcutaneous nodule and induration: 0
  Ulceration: 0
[8]; Day 7, number of mice (n = 9)
  Subcutaneous nodule and induration: 0
  Ulceration: 2
[8]; Day 14, number of mice (n = 9)
  Subcutaneous nodule and induration: 2
  Ulceration: 0
[8]; Day 21, number of mice (n = 9)
  Subcutaneous nodule and induration: 8
  Ulceration: 0
[8]; Day 28, number of mice (n = 9)
  Subcutaneous nodule and induration: 5
  Ulceration: 0
[8]; Day 35, number of mice (n = 9)
  Subcutaneous nodule and induration: 4
  Ulceration: 0
[8]; Day 42, number of mice (n = 9)
  Subcutaneous nodule and induration: 4
  Ulceration: 0
[8]; entire administration cycle
  ulceration at the administration sites over the administration cycle: ulceration was observed at the administration sites
